Measured values reported in patent US20160272645A1, “Heterocyclic Compounds and Methods of Use” (MEDIVATION TECHNOLOGIES, INC., priority 2013, published 2016).

Key:
BTK = target: T1, BTK (Homo sapiens, UniProt Q06187); assay: BTK kinase profiling, HotSpot radiometric assay (Reaction Biology); format: biochemical; details: for inhibition at 0.1 µM: compound 0.1 μM, read-out: BTK @ 0.1 μM (% Inh); for inhibition at 0.1 µM / inhibition at 1 µM / inhibition at 0.01 µM: ATP 10 μM; for inhibition at 1 µM: compound 1 μM, read-out: BTK @ 1 μM (% Inh); for inhibition at 0.01 µM: compound 0.01 μM, read-out: BTK @ 0.01 μM (% Inh)
T1 construct: purchased Reaction Biology Corporation
T1 sequence (Q06187 whole entry): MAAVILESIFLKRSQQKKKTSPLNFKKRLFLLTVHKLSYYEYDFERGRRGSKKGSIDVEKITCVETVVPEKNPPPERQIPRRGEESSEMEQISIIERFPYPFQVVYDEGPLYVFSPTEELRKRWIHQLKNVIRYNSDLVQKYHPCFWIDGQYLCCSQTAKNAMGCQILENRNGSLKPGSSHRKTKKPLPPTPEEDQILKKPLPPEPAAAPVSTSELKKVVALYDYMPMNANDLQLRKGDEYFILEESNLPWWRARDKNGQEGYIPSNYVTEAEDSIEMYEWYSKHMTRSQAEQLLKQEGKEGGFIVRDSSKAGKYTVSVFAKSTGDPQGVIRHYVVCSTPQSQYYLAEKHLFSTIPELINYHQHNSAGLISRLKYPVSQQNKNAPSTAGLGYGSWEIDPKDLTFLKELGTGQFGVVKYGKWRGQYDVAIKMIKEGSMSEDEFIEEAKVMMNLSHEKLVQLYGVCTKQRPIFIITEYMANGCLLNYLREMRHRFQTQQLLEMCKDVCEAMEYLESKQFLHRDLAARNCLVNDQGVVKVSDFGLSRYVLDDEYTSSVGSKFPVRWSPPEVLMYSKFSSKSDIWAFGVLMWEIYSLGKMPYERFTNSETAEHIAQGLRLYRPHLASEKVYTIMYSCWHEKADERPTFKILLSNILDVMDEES
Protocol: Compounds of the invention were profiled in a 10 dose IC50 panel against BTK and PI3Kδ, both provided by Reaction Biology Corporation.
(§1) BTK assay: In vitro profiling protein kinases was performed using the “HotSpot” assay platform. Briefly, specific kinase/substrate pairs along with required cofactors were prepared in reaction buffer. Compounds were prepared as 10 mM stock solutions in DMSO. Compounds were delivered into the reaction, followed 15-20 minutes later by addition of a mixture of ATP (Sigma, St. Louis Mo.) and ^33P ATP (Perkin Elmer, Waltham Mass.) to a final concentration of 10 μM. Reactions were carried out at RT for 120 min, followed by spotting of the reactions onto P81 ion exchange filter paper (Whatman Inc., Piscataway, N.J.). Unbound phosphate was removed by extensive washing of filters in 0.75% Phosphoric acid. […] ICso values and curve fits were obtained using Prism (GraphPad Software). Buffer Conditions: 20 mM Hepes (pH 7.5), 10 mM MgCl2, 1 mM EGTA, 0.02% Brij35, 0.02 mg/mL BSA, 0.1 mM Na3VO4, 2 mM DTT, 1% DMSO.

ITK = target: T2, ITK (Homo sapiens, UniProt Q08881); assay: ITK kinase profiling (BTK protocol); format: biochemical; details: compound 0.3 μM; read-out: ITK @ 0.3 μM (% Inh)
T2 construct: purchased Reaction Biology Corporation
T2 sequence (Q08881 1-620): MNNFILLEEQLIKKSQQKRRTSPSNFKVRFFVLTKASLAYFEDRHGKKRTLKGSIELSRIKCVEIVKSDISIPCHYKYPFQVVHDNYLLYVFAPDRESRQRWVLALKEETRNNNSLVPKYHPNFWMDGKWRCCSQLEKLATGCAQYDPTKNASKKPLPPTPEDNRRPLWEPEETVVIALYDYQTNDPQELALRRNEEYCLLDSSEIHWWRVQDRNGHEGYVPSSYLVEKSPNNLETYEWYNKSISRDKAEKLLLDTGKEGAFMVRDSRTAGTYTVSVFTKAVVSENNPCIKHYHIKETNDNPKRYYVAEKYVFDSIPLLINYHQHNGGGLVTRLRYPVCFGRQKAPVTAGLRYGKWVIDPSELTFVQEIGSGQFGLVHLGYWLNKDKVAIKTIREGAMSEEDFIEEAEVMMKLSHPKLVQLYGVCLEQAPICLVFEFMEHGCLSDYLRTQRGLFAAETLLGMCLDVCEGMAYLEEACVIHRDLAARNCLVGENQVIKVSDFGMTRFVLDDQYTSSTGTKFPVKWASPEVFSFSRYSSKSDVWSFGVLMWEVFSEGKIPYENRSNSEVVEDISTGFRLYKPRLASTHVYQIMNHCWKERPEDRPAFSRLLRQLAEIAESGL
Protocol: as §1
Compounds of the invention were profiled in a 10 dose IC50 panel against BMX/ETK, ITK and TEC kinases, provided by Reaction Biology Corporation, applied to the BTK protocol provided in Example B1.

[1] = tested on: CD69+B220+ cells (mouse spleen cells); assay: B cell activation assay (IgD-stimulated CD69 on B220+ spleen cells, FACS); format: cell-based; details: IgD 3 μg/mL 4 h
PI3Kδ = target: T3, PI3Kδ (Homo sapiens, UniProt O00329); assay: PI3Kδ kinase profiling, HTRF PIP3 displacement assay (Reaction Biology); format: biochemical; details: ATP 10 μM; for inhibition at 0.1 µM: compound 0.1 μM, read-out: PI3Kδ @ 0.1 μM (% Inh); for inhibition at 0.01 µM: compound 0.01 μM, read-out: PI3Kδ @ 0.01 μM (% Inh)
T3 construct: purchased Reaction Biology Corporation
T3 sequence (O00329 whole entry): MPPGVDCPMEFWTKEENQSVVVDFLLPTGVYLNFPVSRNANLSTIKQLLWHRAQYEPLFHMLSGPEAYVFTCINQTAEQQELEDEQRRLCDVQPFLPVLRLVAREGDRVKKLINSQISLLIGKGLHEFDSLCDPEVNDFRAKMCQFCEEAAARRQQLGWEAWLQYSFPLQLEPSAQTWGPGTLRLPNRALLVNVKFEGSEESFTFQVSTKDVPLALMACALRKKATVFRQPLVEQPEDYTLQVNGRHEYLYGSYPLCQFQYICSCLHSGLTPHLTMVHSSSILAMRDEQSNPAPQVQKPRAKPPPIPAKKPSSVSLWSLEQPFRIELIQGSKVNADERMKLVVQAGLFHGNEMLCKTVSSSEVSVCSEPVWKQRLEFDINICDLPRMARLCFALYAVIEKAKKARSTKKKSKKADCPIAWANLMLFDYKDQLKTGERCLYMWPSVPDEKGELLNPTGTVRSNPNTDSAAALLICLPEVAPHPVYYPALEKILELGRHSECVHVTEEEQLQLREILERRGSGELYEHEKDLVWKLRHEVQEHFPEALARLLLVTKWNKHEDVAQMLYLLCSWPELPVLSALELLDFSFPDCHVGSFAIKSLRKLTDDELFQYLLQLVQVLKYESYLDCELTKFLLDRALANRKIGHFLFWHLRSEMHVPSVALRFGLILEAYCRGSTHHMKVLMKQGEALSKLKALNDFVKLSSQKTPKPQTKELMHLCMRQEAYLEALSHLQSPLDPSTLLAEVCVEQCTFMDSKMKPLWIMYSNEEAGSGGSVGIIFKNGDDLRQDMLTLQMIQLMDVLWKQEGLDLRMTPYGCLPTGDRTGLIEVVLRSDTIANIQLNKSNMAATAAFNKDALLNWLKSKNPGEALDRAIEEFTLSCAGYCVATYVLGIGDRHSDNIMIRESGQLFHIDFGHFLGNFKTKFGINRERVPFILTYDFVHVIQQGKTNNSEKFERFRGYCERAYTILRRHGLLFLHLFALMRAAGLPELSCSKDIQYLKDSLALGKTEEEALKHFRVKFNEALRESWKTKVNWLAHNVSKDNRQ
T3 sequence (P27986 whole entry partner): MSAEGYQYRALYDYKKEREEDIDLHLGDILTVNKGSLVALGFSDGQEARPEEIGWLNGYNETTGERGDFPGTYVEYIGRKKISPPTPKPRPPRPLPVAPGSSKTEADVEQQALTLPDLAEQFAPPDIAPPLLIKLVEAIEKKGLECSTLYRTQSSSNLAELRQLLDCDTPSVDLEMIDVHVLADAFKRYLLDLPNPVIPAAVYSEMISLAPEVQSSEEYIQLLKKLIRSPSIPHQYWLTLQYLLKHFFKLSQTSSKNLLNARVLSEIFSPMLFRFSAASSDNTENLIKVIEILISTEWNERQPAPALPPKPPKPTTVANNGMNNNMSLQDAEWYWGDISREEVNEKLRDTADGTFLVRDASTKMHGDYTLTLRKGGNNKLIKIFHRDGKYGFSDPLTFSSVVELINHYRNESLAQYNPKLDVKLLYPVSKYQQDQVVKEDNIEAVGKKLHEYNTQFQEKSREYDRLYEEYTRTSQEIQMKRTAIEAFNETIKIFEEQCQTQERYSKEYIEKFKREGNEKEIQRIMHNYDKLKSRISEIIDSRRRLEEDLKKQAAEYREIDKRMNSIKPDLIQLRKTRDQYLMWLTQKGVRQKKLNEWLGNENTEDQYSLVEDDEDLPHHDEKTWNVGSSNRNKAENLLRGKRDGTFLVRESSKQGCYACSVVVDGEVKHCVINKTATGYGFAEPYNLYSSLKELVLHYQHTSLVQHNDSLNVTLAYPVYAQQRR

SMILES	IC50 (BTK)	inhibition at 0.3 µM (ITK)	IC50 [1]	inhibition at 0.1 µM (BTK)	inhibition at 0.1 µM (PI3Kδ)	inhibition at 1 µM (BTK)	inhibition at 0.01 µM (BTK)	inhibition at 0.01 µM (PI3Kδ)
Nc1ncnc2c1c(-c1cc(O)cc(F)c1)nn2CCNc1ccccc1 [Compound 1, 3-(4-amino-1-(2-(phenylamino)ethyl)-1H-pyrazolo [3,4-d]pyrimidin-3-yl)-5-fluorophenol]	167 nM	0.06%	55.1 ± 38.3 nM					
C=CC(=O)N(CCn1nc(-c2cc(O)cc(F)c2)c2c(N)ncnc21)c1ccccc1 [Compound 2, N-(2-(4-amino-3-(3-fluoro-5-hydroxyphenyl)-1H-pyrazolo[3,4-d]pyrimidin-1-yl)ethyl)-N-phenylacrylamide]	3.9 nM	50.7%		94.1%	39.1%			
C=CC(=O)N(CCn1nc(-c2cc(O)cc(F)c2)c2c(N)ncnc21)Cc1ccccc1 [Compound 5, N-(2-(4-amino-3-(3-fluoro-5-hydroxyphenyl)-1H-pyrazolo[3,4-d]pyrimidin-1-yl)ethyl)-N-benzylacrylamide]	3.7 nM	10.2%		94%	70.3%			
C=CC(=O)N(CCn1nc(-c2cc(O)cc(F)c2)c2c(N)ncnc21)Cc1ccc(F)cc1 [Compound 10, N-{2-[4-amino-3-(3-fluoro-5-hydroxyphenyl)-1H-pyrazolo [3,4-d]pyrimidin-1-yl]ethyl}-N-[(4-fluorophenyl)methyl]prop-2-enamide]	3 nM	30.5%		95.4%	67.2%	98.3%		
C=CC(=O)N(CCn1nc(-c2cc(O)cc(F)c2)c2c(N)ncnc21)Cc1ccccc1F [Compound 11, N-[2-[4-amino-3-(3-fluoro-5-hydroxy-phenyl)pyrazolo[3,4-d]pyrimidin-1-yl]ethyl]-N-[(2-fluorophenyl)methyl]prop-2-enamide]	7.4 nM	34.7%		93.8%	54.2%	97.2%		
C=CC(=O)N(CCn1nc(-c2cc(O)cc(F)c2)c2c(N)ncnc21)Cc1ccc(Cl)cc1 [Compound 12, N-{2-[4-amino-3-(3-fluoro-5-hydroxyphenyl)-1H-pyrazolo[3,4-d]pyrimidin-1-yl]ethyl}-N-[(4-chlorophenyl)methyl]prop-2-enamide]	0.4 nM	62.5%		94.4%	66.7%		62.8%	37.7%
C=CC(=O)N(CCn1nc(-c2cc(O)c(F)c(F)c2)c2c(N)ncnc21)Cc1ccc(Cl)cc1 [Compound 16, N-{2-[4-amino-3-(3,4-difluoro-5-hydroxyphenyl)-1H-pyrazolo[3,4-d]pyrimidin-1-yl]ethyl}-N-[(4-chlorophenyl)methyl]prop-2-enamide]	2.7 nM	8.93%		93.8%	73%		63.4%	48.3%
